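GI50 is the concentration that inhibits growth by half. TGI denotes the concentration required for complete inhibition of growth.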
Key:
Assay in all cases: DTP human tumour cell line panel, 384-well format; in the data active means GI50 below about 0.43 µM; inactive means the rest
MDA-MB-435 melanoma = tested on: MDA-MB-435 melanoma
HL-60(TB) leukemia = tested on: HL-60(TB) leukemia
U251 glioblastoma = tested on: U251 glioblastoma
OVCAR-3 ovarian = tested on: OVCAR-3 ovarian
PC-3 prostate = tested on: PC-3 prostate
HS 578T breast = tested on: HS 578T breast
MDA-MB-468 breast = tested on: MDA-MB-468 breast
SW-620 colon = tested on: SW-620 colon
SF-295 CNS = tested on: SF-295 CNS
HCC-2998 colon = tested on: HCC-2998 colon
K-562 leukemia = tested on: K-562 leukemia
RPMI-8226 leukemia = tested on: RPMI-8226 leukemia
NCI-H226 lung = tested on: NCI-H226 lung
A549 NSCLC = tested on: A549 NSCLC
SK-MEL-28 melanoma = tested on: SK-MEL-28 melanoma
786-0 renal = tested on: 786-0 renal
NCI/ADR-RES ovarian = tested on: NCI/ADR-RES ovarian
EKVX NSCLC = tested on: EKVX NSCLC
A498 renal = tested on: A498 renal
TK-10 renal = tested on: TK-10 renal
RXF 393 renal = tested on: RXF 393 renal
SF-539 CNS = tested on: SF-539 CNS
LOX IMVI melanoma = tested on: LOX IMVI melanoma
SR leukemia = tested on: SR leukemia
HCT-116 colon = tested on: HCT-116 colon
MALME-3M melanoma = tested on: MALME-3M melanoma
SK-MEL-5 melanoma = tested on: SK-MEL-5 melanoma
OVCAR-4 ovarian = tested on: OVCAR-4 ovarian
MDA-MB-231 breast = tested on: MDA-MB-231 breast
SF-268 CNS = tested on: SF-268 CNS
DU-145 prostate = tested on: DU-145 prostate
NCI-H23 lung = tested on: NCI-H23 lung
HOP-62 NSCLC = tested on: HOP-62 NSCLC
IGROV1 ovarian = tested on: IGROV1 ovarian
T-47D breast = tested on: T-47D breast
SN12C renal = tested on: SN12C renal
UO-31 renal = tested on: UO-31 renal
HOP-92 NSCLC = tested on: HOP-92 NSCLC
HCT-15 colon = tested on: HCT-15 colon
OVCAR-5 ovarian = tested on: OVCAR-5 ovarian
BT-549 breast = tested on: BT-549 breast
HT29 colon = tested on: HT29 colon
SNB-19 CNS = tested on: SNB-19 CNS
M14 melanoma = tested on: M14 melanoma
OVCAR-8 ovarian = tested on: OVCAR-8 ovarian
SNB-75 CNS = tested on: SNB-75 CNS
CCRF-CEM leukemia = tested on: CCRF-CEM leukemia
KM12 colon = tested on: KM12 colon
MCF7 breast = tested on: MCF7 breast
COLO 205 colon = tested on: COLO 205 colon
SK-OV-3 ovarian = tested on: SK-OV-3 ovarian
MOLT-4 leukemia = tested on: MOLT-4 leukemia
NCI-H522 lung = tested on: NCI-H522 lung
UACC-62 melanoma = tested on: UACC-62 melanoma
SK-MEL-2 melanoma = tested on: SK-MEL-2 melanoma
UACC-257 melanoma = tested on: UACC-257 melanoma
CAKI-1 renal = tested on: CAKI-1 renal
NCI-H322M lung = tested on: NCI-H322M lung
NCI-H460 NSCLC = tested on: NCI-H460 NSCLC

CCN1CCC(Oc2c(C#N)ncc3[nH]c4ncccc4c23)CC1
27.5 µM: TGI (UACC-62 melanoma)
inactive: GI50 (MDA-MB-435 melanoma) 520 nM | GI50 (HL-60(TB) leukemia) 548 nM | GI50 (U251 glioblastoma) 1590 nM | GI50 (OVCAR-3 ovarian) 501 nM | GI50 (PC-3 prostate) 4.79 µM | GI50 (SW-620 colon) 2300 nM | GI50 (RPMI-8226 leukemia) 720 nM | GI50 (NCI-H226 lung) > 23.5 µM | GI50 (A549 NSCLC) > 100 µM | GI50 (SK-MEL-28 melanoma) > 100 µM | GI50 ([…]-0 renal) 2520 nM | GI50 (EKVX NSCLC) > 100 µM | GI50 (LOX IMVI melanoma) 1670 nM | GI50 (HCT-116 colon) 1270 nM | GI50 (MALME-3M melanoma) 9.76 µM | GI50 (SK-MEL-5 melanoma) 2610 nM | GI50 (OVCAR-4 ovarian) > 100 µM | GI50 (MDA-MB-231 breast) 26.3 µM | GI50 (SF-268 CNS) 3.5 µM | GI50 (DU-145 prostate) 5.9 µM | GI50 (IGROV1 ovarian) 1630 nM | GI50 (T-47D breast) > 100 µM | GI50 (SN12C renal) 3.25 µM | GI50 (HCT-15 colon) 2260 nM | GI50 (OVCAR-5 ovarian) 2650 nM | GI50 (HT29 colon) 5.96 µM | GI50 (SNB-19 CNS) 4.56 µM | GI50 (OVCAR-8 ovarian) 1010 nM | GI50 (SNB-75 CNS) 7.16 µM | GI50 (KM12 colon) 640 nM | GI50 (COLO 205 colon) 2520 nM | GI50 (SK-OV-3 ovarian) 578 nM | GI50 (NCI-H522 lung) 3.19 µM | GI50 (UACC-62 melanoma) 5.29 µM | GI50 (SK-MEL-2 melanoma) 1170 nM | GI50 (UACC-257 melanoma) > 100 µM | GI50 (CAKI-1 renal) 3.4 µM | GI50 (NCI-H322M lung) 449 nM | GI50 (NCI-H460 NSCLC) 997 nM
18.4 µM: TGI (NCI-H23 lung)
> 22.5 µM: TGI (MDA-MB-468 breast)
5.81 µM: TGI (COLO 205 colon)
1970 nM: TGI (RPMI-8226 leukemia)
438 nM: TGI (NCI/ADR-RES ovarian)
619 nM: TGI (SF-295 CNS)
3.94 µM: TGI (NCI-H460 NSCLC)
273 nM: TGI (SF-539 CNS)
133 nM: TGI (A498 renal)
5.54 µM: TGI (SW-620 colon)
2850 nM: TGI (HCT-116 colon)
694 nM: TGI (K-562 leukemia)
1650 nM: TGI (UO-31 renal) | TGI (M14 melanoma)
426 nM: TGI (BT-549 breast)
active: GI50 (HS 578T breast) 199 nM | GI50 (SF-295 CNS) 120 nM | GI50 (HCC-2998 colon) 93.3 nM | GI50 (K-562 leukemia) 253 nM | GI50 (NCI/ADR-RES ovarian) 130 nM | GI50 (A498 renal) < 45.6 nM | GI50 (TK-10 renal) 329 nM | GI50 (RXF 393 renal) 51.5 nM | GI50 (SF-539 CNS) 85.8 nM | GI50 (SR leukemia) < 39.6 nM | GI50 (NCI-H23 lung) 423 nM | GI50 (HOP-62 NSCLC) 311 nM | GI50 (UO-31 renal) 221 nM | GI50 (HOP-92 NSCLC) 183 nM | GI50 (BT-549 breast) 147 nM | GI50 (M14 melanoma) 398 nM | GI50 (CCRF-CEM leukemia) 182 nM | GI50 (MCF7 breast) 317 nM | GI50 (MOLT-4 leukemia) 172 nM
2060 nM: TGI (HOP-62 NSCLC)
> 88.1 µM: TGI (HCT-15 colon)
410 nM: TGI (HCC-2998 colon)
4.47 µM: TGI (SK-MEL-2 melanoma)
69.8 µM: TGI (MDA-MB-231 breast)
> 90.2 µM: TGI (PC-3 prostate)
> 24 µM: TGI (SK-OV-3 ovarian)
> 100 µM: TGI (U251 glioblastoma) | TGI (NCI-H226 lung) | TGI (A549 NSCLC) | TGI (SK-MEL-28 melanoma) | TGI (786-0 renal) | TGI (EKVX NSCLC) | TGI (LOX IMVI melanoma) | TGI (MALME-3M melanoma) | TGI (SK-MEL-5 melanoma) | TGI (OVCAR-4 ovarian) | TGI (DU-145 prostate) | TGI (IGROV1 ovarian) | TGI (T-47D breast) | TGI (OVCAR-5 ovarian) | TGI (HT29 colon) | TGI (SNB-19 CNS) | TGI (OVCAR-8 ovarian) | TGI (MCF7 breast) | TGI (NCI-H522 lung) | TGI (UACC-257 melanoma) | TGI (CAKI-1 renal) | TGI (NCI-H322M lung)
92.8 nM: TGI (SR leukemia)
14.8 µM: TGI (SF-268 CNS)
356 nM: TGI (CCRF-CEM leukemia)
3.9 µM: TGI (KM12 colon)
211 nM: TGI (RXF 393 renal)
> 57.8 µM: TGI (SNB-75 CNS)
1040 nM: TGI (HL-60(TB) leukemia)
327 nM: TGI (MOLT-4 leukemia)
1400 nM: TGI (HS 578T breast)
1180 nM: TGI (OVCAR-3 ovarian)
> 52.1 µM: TGI (SN12C renal)
1760 nM: TGI (MDA-MB-435 melanoma)
